pIC50: −log10 of the molar value.

Chain of Serine/threonine-protein kinase B-raf (P15056 2-766 V600E limits assumed): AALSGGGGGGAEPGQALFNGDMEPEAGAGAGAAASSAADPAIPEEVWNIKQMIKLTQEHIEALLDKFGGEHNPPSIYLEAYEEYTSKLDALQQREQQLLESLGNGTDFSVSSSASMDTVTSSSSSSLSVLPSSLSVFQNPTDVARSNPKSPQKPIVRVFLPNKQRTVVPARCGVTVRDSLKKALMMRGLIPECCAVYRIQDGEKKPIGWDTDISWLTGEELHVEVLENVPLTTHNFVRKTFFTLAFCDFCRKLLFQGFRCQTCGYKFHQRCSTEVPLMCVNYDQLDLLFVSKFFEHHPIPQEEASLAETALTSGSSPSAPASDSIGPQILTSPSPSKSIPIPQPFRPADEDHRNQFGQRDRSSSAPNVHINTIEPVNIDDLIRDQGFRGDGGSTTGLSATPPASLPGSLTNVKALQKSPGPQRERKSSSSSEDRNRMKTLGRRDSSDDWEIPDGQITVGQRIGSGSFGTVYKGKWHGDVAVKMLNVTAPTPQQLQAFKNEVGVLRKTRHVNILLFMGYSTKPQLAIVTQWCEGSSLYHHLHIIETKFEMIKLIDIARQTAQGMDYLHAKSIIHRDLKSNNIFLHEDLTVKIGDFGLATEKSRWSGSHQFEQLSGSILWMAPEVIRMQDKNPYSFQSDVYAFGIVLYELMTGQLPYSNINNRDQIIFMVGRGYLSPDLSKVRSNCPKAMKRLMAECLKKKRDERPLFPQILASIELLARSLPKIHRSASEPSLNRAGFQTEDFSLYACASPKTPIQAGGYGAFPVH

The experiment has as its target Serine/threonine-protein kinase B-raf (Homo sapiens, UniProt P15056, V600E). The experiment can be described thus: B-RAF (V600E) Kinase Assay: In a dilution series 10 uL/well of test substance solution are placed in a multiwell plate. The dilution series is selected so that generally a range of concentrations of 2 uM to 0.119 nM or 0.017 nM is covered. If necessary the initial concentration of 2 uM is changed to 50 uM, 10 uM or 0.4 uM or 0.2857 uM and further dilution is carried out accordingly. The final concentration of DMSO is 5%. 10 uL/well of the B-Raf (V600E)-kinase solution are pipetted in (containing 0.5 ng B-Raf (V600E)-kinase (e.g. from Upstate) in 20 mM Tris-HCl pH 7.5, 0.1 mM EDTA, 0.1 mM EGTA, 0.286 mM sodium orthovanadate, 10% glycerol, 1 mg/mL bovine serum albumin, 1 mM dithiothreitol) and the mixture is incubated for 1 h at RT under with shaking. The kinase reaction is started by the addition of 20 uL/well ATP solution [final concentration: 250 uM ATP, 30 mM Tris-HCl pH 7.5, 0.02% Brij, 0.2 mM sodium orthovanadate, 10 mM magnesium acetate, 0.1 mM EGTA, phosphatase cocktail (Sigma, #P2850, dilution recommended by the manufacturer)] and 10 uL/well MEK1 solution [containing 50 ng biotinylated MEK1 (prepared from purified MEK1 according to standard procedure, e.g. with EZ-Link Sulpho-NHS-LC-Biotin reagent, Pierce, #21335)] and carried out for 60 min at RT with constant shaking. The reaction is stopped by the addition of 12 uL/well of a 100 mM EDTA solution and incubation is continued for a further 5 min. 55 uL/well of the reaction solution are transferred into a streptavidin-coated plate (e.g. Streptawell HighBond, Roche, #11989685001) and shaken gently for 1 h at RT, in order to bind biotinylated MEK1 to the plate. After elimination of the liquid the plate is washed five times with 200 uL/well of 1ÿPBS and 100 uL/well solution of primary antibody plus europium-labelled secondary antibody [Anti Phospho-MEK (Ser217/221), Cell Signaling, #9121 and Eu-N1 labelled goat-anti-rabbit antibody, Perkin Elmer, #AD0105] is added, the primary antibody is diluted 1:2000 and the secondary antibody is diluted to 0.4-0.5 ug/mL in Delfia Assay Buffer (Perkin Elmer, #1244-111). After 1 h shaking at RT the solution is poured away and washed five times with 200 uL/well Delfia Wash Buffer (Perkin Elmer, #4010-0010/#1244-114). After the addition of 200 uL/well Enhancement Solution (Perkin Elmer, #4001-0010/#1244-105) the mixture is shaken for 10 min at RT and then measured in a Wallac Victor using the program "Delfia Time Resolved Fluorescence (Europium)". IC50 values are obtained from these dosage-activity curves using a software program (GraphPadPrizm).
For orientation: pIC50 means the IC50 on a negative log10 scale, so that one unit is a factor of ten. For `Cc1ccc(NC(=O)c2ccc(C(C)(C)C)s2)cc1-n1cc(-c2cncc(N3CCN(CC(C)C)CC3)c2)nn1`, the pIC50 was 7.74. As for `CCN1CCN(c2cncc(-c3cn(-c4cc(C(=O)Nc5cc(C(C)(C)C)on5)ccc4C)nn3)c2)CC1C` (stereo not given), the figure is 7.96; as for `Cc1ccc(NC(=O)c2ccc(C(C)(C)C)s2)cc1-n1cc(-c2cncc(N3CCN(C)CC3)c2)nn1`, 8.22; as for `C=CCN1CCN(c2cncc(-c3cn(-c4cc(NC(=O)c5ccc(C(C)(C)C)s5)ccc4C)nn3)c2)CC1`, 7.89. Regarding `Cc1ccc(NC(=O)c2ccc(C(C)(C)C)s2)cc1-n1cc(-c2cncc(N3CCNCC3)c2)nn1`, the pIC50 was 8.40.
